{"source": "patent US10519211B2", "about": "“Compounds as peptidic GLP1/glucagon/GIP receptor agonists” (SANOFI, priority 2016, dated 2019)", "format_in_all_cases": "physicochemical", "key": {"[1]": {"experiment": "Solubility assessment (UPLC-UV)", "details": "acetate buffer pH 4.5, 2.7 mg/ml m-cresol (buffer system A), target 10 mg/ml", "description": "Prior to the solubility measurement of a peptide batch, its purity was determined through UPLC/MS.\nTherefore solutions from solid samples were prepared in a buffer systems with a concentration of 10 mg/mL compound based on the previously determined % purity:\nSolubility buffer system A) Acetate Buffer pH 4.5, 100 mM sodium acetate trihydrate, 2.7 mg/ml m-Cresol\nUPLC-UV was performed after 1 hour of gentle agitation from the supernatant, which was obtained after 15 min of centrifugation at 2500 RCF (relative centrifugal acceleration).\nThe solubility was determined by the comparison of the UV peak area of 2 μL-injection of a buffered sample diluted 1:10 with a standard curve of a reference peptide with known concentration. The different UV extinction coefficients of sample and reference peptide were calculated based on the different amino acid sequences and considered in the concentration calculation.\nPeptide samples were prepared in solubility buffer system A and solubility was assessed as described in Methods."}, "[2]": {"experiment": "Thioflavin T (ThT) assay for physical stability (fibrillation)", "details": "3 mg/ml, 100 mM acetate pH 4.5 with m-cresol, shaking at 37° C.", "description": "Investigations were carried out to determine fibrillation tendencies under stress conditions by shaking at 37° C. within Fluoroskan Ascent FL.\nFor the tests in Fluoroskan Ascent FL, 200 μL sample were placed into a 96 well mictrotiter plate PS, flat bottom, Greiner Fluotrac No. 655076. Plates were sealed with Scotch Tape (Quiagen). Samples were stressed by continuous cycles of 10 s shaking at 960 rpm and 50 s rest period at 37° C. The kinetic was monitored by measuring fluorescence intensity every 20 minutes.\nPeptides were diluted in a buffer system to a final concentration of 3 mg/ml. 20 μL of a 10.1 mM ThT solution in H2O were added to 2 mL of peptide solution to receive a final concentration of 100 μM ThT. For each sample eight replicates were tested.\nTht buffer system A) 100 mM Acetate pH 4.5 including m-cresol (100 mM Natriumacetat trihydrat, pH adjustment using 2N CH3COOH, 2.7 mg/mL m-cresol) Tht buffer system B) 100 mM citrate buffer pH 6.0\nLag time in hours in Thioflavin T (ThT) assay of peptide samples was determined in Tht buffer system A as described in Methods."}, "[3]": {"experiment": "Chemical stability assessment (UPLC-UV, relative purity loss)", "details": "1 mg/ml, 25 mM acetate buffer pH 4.5 with m-cresol (buffer system A)", "description": "Prior to the chemical stability measurement of a peptide batch, its purity was determined through UPLC/MS. For stability testing the target concentration was 1 mg pure compound/ml. Therefore solutions from solid samples were prepared in a buffer system with a concentration of 1 mg/mL compound based on the previously determined % purity:\nChemical stability buffer system A) 25 mM acetate buffer pH4.5, 3 mg/mL L-Methionine, 2.7 mg/mL m-cresol, 18 mg/mL Glycerol 85%\nPeptide solutions were filtered through […] pore size and filled into aliquots under aseptic conditions. At starting point UPLC-UV was performed by injection of 2 μl of the undiluted sample.\nFor chemical stability testing, aliquots were stored for 28 days at Sand 40° C. After this time course the samples were centrifuged for 15 min at 2500 RCF. Then 2 μl of the undiluted supernatant were analysed with UPLC-UV.\nThe chemical stability was rated through the relative loss of purity calculated by the equation: [(purity at starting point)−(purity after 28 days at X° C.)]/(purity at starting point)]*100%\nThe purity is calculated as [(peak area peptide)/(total peak area)]*100%\nPeptide samples were prepared in Chemical stability buffer system A and chemical stability was assessed as described in Methods."}, "[4]": {"experiment": "Dynamic light scattering (DLS), hydrodynamic radius as surrogate for interaction parameter kD", "description": "For every peptide solution, the hydrodynamic radius Rh and the diffusion constant D (related via the Stokes-Einstein equation) were determined as an average over triplicates. Both parameters were determined at different concentrations (e.g., Rh1 and D1: 1 mg/ml and Rh5 and D5: 5 mg/ml) in the same buffer system. The difference of these parameters between low and high peptide concentration is a surrogate for the DLS interaction parameter kD. Rh5<Rh1 or D5>D1 correspond to kD>0 and therefore to repulsive inter-particle interactions that result in improved physical (or colloidal) stability.\nDLS buffer system A) 25 mM acetate buffer pH4.5, 3 mg/mL L-Methionine, 2.7 mg/mL m-cresol, 18 mg/mL Glycerol 85%\nDLS Method C: DLS measurements were performed on a DynaPro Plate Reader II (Wyatt Technology, Santa Barbara, Calif., US) and using one of the following black, low volume, and non-treated plates: polystyrene 384 assay plate with clear bottom (Corning, N.Y., US), polystyrene 96 assay plate with clear bottom (Corning, N.Y., US), cyclo olefin polymer (COP) 384 assay plate with clear bottom (Aurora, Mont., US), or polystyrene 384 assay plate with clear bottom (Greiner Bio-One, Germany). The data were processed with the Dynamics software provided by Wyatt Technology. Parameters of the particle size distribution were determined with non-negatively constrained least squares (NNLS) methods using DynaLS algorithms. Measurements were taken at 25° C. with an 830 nm laser light source at an angle of 158°.\nThe hydrodynamic radius radius Rh of peptide samples was determined at different peptide concentrations (1 mg/ml and 5 mg/ml) in DLS buffer system A using DLS method C as described in Methods as surrogate for the DLS interaction parameter kD."}}, "note": "Numbered stars: 1 amine (or outer) side, 2 acyl side, 3 side chain; on linkers, the order of the positions; unused ones are H or OH. Square brackets hold non-standard residues; d marks the D form. Side chains are listed from the residue outwards. Peptide text beside a SMILES is read from it. * marks the point of attachment. Adipoyl(4R-palmitoylamino) = CCCCCCCCCCCCCCCC(=O)N[C@H](CCC(=O)*)CC(=O)O; γGlu = O=C(O)[C@H](CCC(=O)[*:2])N[*:1]; Palmitoyl = CCCCCCCCCCCCCCCC(=O)*; AEEA = NCCOCCOCC(=O)O; Aib = CC(C)(N)C(=O)O", "data": [{"smiles": "CCCCCCCCCCCCCCCC(=O)N[C@@H](CCC(=O)N[C@@H](CCC(=O)NCCCC[C@H](NC(=O)[C@H](CC(C)C)NC(=O)[C@H](CCCCN)NC(=O)[C@H](CO)NC(=O)[C@H](CC(C)C)NC(=O)[C@H](CC(=O)O)NC(=O)[C@H](CO)NC(=O)[C@@H](NC(=O)[C@H](Cc1ccccc1)NC(=O)[C@@H](NC(=O)CNC(=O)[C@H](CCC(N)=O)NC(=O)C(C)(C)NC(=O)[C@@H](N)Cc1c[nH]cn1)[C@@H](C)O)[C@@H](C)O)C(=O)N[C@@H](CCC(=O)O)C(=O)N[C@@H](CCC(=O)O)C(=O)N[C@@H](CCC(N)=O)C(=O)N[C@@H](CCCNC(=N)N)C(=O)N[C@@H](CCC(N)=O)C(=O)NC(C)(C)C(=O)N[C@@H](CCC(=O)O)C(=O)N[C@@H](Cc1ccccc1)C(=O)N[C@H](C(=O)N[C@@H](CCC(=O)O)C(=O)N[C@@H](Cc1c[nH]c2ccccc12)C(=O)N[C@@H](CC(C)C)C(=O)N[C@@H](CCCCN)C(=O)N[C@@H](C)C(=O)N[C@H](C)C(=O)NCC(=O)N[C@@H](Cc1c[nH]cn1)C(=O)N1CCC[C@H]1C(=O)N[C@@H](CO)C(=O)NC(C)(C)C(=O)N[C@@H](CCCCN)C(=O)N1CCC[C@H]1C(=O)N1CCC[C@H]1C(=O)N1CCC[C@H]1C(=O)N[C@@H](CCCCN)C(N)=O)[C@@H](C)CC)C(=O)O)C(=O)O", "note": "[SEQ ID NO: 11, H-Aib-Q-G-T-F-T-S-D-L-S-K-L-K[gGlu-gGlu-Palm]-E-E-Q-R-Q-Aib-E-F-I-E-W-L-K-A-dAla-G-H-P-S-Aib-K-P-P-P-K-NH2] (H-H[Aib]QGTFTSDLSKLK([γGlu-γGlu-Palmitoyl])EEQRQ[Aib]EFIEWLKA[dA]GHPS[Aib]KPPPK-NH2)", "values": [{"measurement": "solubility at 1 h", "setting": "[1]", "result": "> 9.9", "unit": "mg/mL"}, {"measurement": "Lag time before increase", "setting": "[2]", "result": ">45", "unit": "h"}, {"measurement": "Chemical stability [relative purity loss 28 days 40° C.] (%) at pH 4.5", "setting": "[3]", "result": 7.2, "unit": "%"}]}, {"smiles": "CCCCCCCCCCCCCCCC(=O)N[C@H](CCC(=O)NCCOCCOCC(=O)N[C@@H](CCC(=O)NCCCC[C@H](NC(=O)[C@H](CC(C)C)NC(=O)[C@H](CCCCN)NC(=O)[C@H](CO)NC(=O)[C@H](CC(C)C)NC(=O)[C@H](CC(=O)O)NC(=O)[C@H](CO)NC(=O)[C@@H](NC(=O)[C@H](Cc1ccccc1)NC(=O)[C@@H](NC(=O)CNC(=O)[C@H](CCC(N)=O)NC(=O)C(C)(C)NC(=O)[C@@H](N)Cc1c[nH]cn1)[C@@H](C)O)[C@@H](C)O)C(=O)N[C@@H](CCC(=O)O)C(=O)N[C@@H](CCC(=O)O)C(=O)N[C@@H](CCC(N)=O)C(=O)N[C@@H](CCCNC(=N)N)C(=O)N[C@@H](CCC(N)=O)C(=O)NC(C)(C)C(=O)N[C@@H](CCC(=O)O)C(=O)N[C@@H](Cc1ccccc1)C(=O)N[C@H](C(=O)N[C@@H](CCC(=O)O)C(=O)N[C@@H](Cc1c[nH]c2ccccc12)C(=O)N[C@@H](CC(C)C)C(=O)N[C@@H](CCCCN)C(=O)N[C@@H](C)C(=O)N[C@H](C)C(=O)NCC(=O)N[C@@H](Cc1c[nH]cn1)C(=O)N1CCC[C@H]1C(=O)N[C@@H](CO)C(=O)NC(C)(C)C(=O)N[C@@H](CCCCN)C(=O)N1CCC[C@H]1C(=O)N1CCC[C@H]1C(=O)N1CCC[C@H]1C(=O)N[C@@H](CCCCN)C(N)=O)[C@@H](C)CC)C(=O)O)CC(=O)O", "note": "[SEQ ID NO: 23, H-Aib-Q-G-T-F-T-S-D-L-S-K-L-K[gGlu-AEEA-gAAA-Palm]-E-E-Q-R-Q-Aib-E-F-I-E-W-L-K-A-dAla-G-H-P-S-Aib-K-P-P-P-K-NH2] (H-H[Aib]QGTFTSDLSKLK([γGlu-AEEA-Adipoyl(4R-palmitoylamino)])EEQRQ[Aib]EFIEWLKA[dA]GHPS[Aib]KPPPK-NH2)", "values": [{"measurement": "Delta Rh [nm] = Rh5 − Rh1", "setting": "[4]; DLS buffer system A pH 4.5", "result": "−0.1", "unit": "nm"}, {"measurement": "Rh1 [nm] c= 1 mg/ml", "setting": "[4]; hydrodynamic radius, 1 mg/ml, DLS buffer system A pH 4.5, DLS method C, 25° C.", "result": 2.8, "unit": "nm"}, {"measurement": "Rh5 [nm] c = 5 mg/ml", "setting": "[4]; hydrodynamic radius, 5 mg/ml, DLS buffer system A pH 4.5, DLS method C, 25° C.", "result": 2.7, "unit": "nm"}, {"measurement": "solubility at 1 h", "setting": "[1]", "result": "> 10.4", "unit": "mg/mL"}, {"measurement": "Lag time before increase", "setting": "[2]", "result": ">45", "unit": "h"}, {"measurement": "Chemical stability [relative purity loss 28 days 40° C.] (%) at pH 4.5", "setting": "[3]", "result": 9.6, "unit": "%"}]}]}
